US20100015240A1, “PROCESS FOR PREPARING MICROPARTICLES CONTAINING BIOACTIVE PEPTIDES” (priority 2008, published 2010)

Assay: Peptide solubility in polyols estimated by visual observation of solutions
Type: physicochemical
Details: solvent propylene glycol
Source text: Solubilities at various concentration ranges were estimated based on visual observations of solutions prepared at the indicated peptide concentration levels listed in Table II.

Measured: Peptide solubility at specified concentration level

C[C@@H](O)[C@@H]1NC(=O)[C@H](CCCCN)NC(=O)[C@@H](Cc2c[nH]c3ccccc23)NC(=O)[C@H](Cc2ccccc2)NC(=O)[C@@H](NC(=O)[C@H](N)Cc2ccccc2)CSSC[C@@H](C(=O)N[C@H](CO)[C@@H](C)O)NC1=O [Octreotide]
Soluble: 100 mg/mL | <10 mg/mL | at 10 mg/mL
